We go through one compound from ChEMBL document CHEMBL3638826, “Heterocyclic compounds as ERK inhibitors” (2015).

The target in the experiment is Mitogen-activated protein kinase 1 (Mus musculus, UniProt P63085). Kind of experiment: IMAP Assay : Condition 1: Activated ERK2 activity was also determined in the IMAP assay format using the procedure outlined above. 1 μl of 25× compound was added to […] of kinase buffer containing 0.25 ng fully phosphorylated, active Mouse ERK2 protein. Following a 30 minute incubation, the reactions were initiated by addition of 10 μl of kinase buffer containing 1 μM ERK2 IMAP substrate peptide (0.9 μM unlabeled […]-CONH2 and 100 nM […](5-carboxyfluorescein)-CONH2) and 30 μM ATP. Reactions proceeded for 30 minutes before termination by addition of 60 μl IMAP detection beads in binding buffer. Plates were read as above after 30 minute binding equilibration. Active compounds were reconfirmed in an independent assay.
Chain of Mitogen-activated protein kinase 1 (P63085 whole entry): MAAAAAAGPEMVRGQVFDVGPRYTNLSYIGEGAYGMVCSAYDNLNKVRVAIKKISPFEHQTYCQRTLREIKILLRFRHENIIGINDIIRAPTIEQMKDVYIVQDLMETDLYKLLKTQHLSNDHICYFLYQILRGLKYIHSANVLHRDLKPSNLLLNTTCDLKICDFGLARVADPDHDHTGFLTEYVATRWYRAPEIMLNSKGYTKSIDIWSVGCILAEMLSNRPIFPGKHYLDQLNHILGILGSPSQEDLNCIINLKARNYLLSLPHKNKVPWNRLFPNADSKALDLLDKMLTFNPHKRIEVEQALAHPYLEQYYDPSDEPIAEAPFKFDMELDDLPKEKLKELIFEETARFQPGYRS

In the case of `COc1cccc(F)c1CN1C[C@H](NC(=O)c2ccc3[nH]nc(-c4ccncc4)c3c2)CC[C@H]1C(=O)N1CCC(F)(F)CC1`, the 50% inhibitory concentration (IC50) was 35 nM.

For orientation: IC50 means the point on the concentration scale where inhibition reaches its midpoint. A lower IC50 goes with greater potency in that assay.
